Assay results: PMC10210398, “Genomic, functional and structural analyses elucidate evolutionary innovation within the sea anemone 8 toxin family” (BMC Biology, 2023)

Legend:
hKV1.1 [1] = type: cell-based, human
Experimental: (§1) CHO and human embryonic kidney (HEK 293) cells were grown in DMEM-high glucose supplemented with 10% FBS, 2 mM L-glutamine, 100 U/mL penicillin-g, and 100 μg/mL streptomycin (Invitrogen) at 37 °C in a 5% CO2 and 95% air humidified atmosphere. Cells were passaged twice per week following a 5-min incubation in PBS containing 0.2 g/L EDTA (Invitrogen, Carlsbad, CA).
(§2) CHO cells (ATCC) were transiently transfected with plasmids encoding hKV1.1, hKV1.2, hKV10.1, hKCa3.1, hTRPA1, or hNaV1.7 using Lipofectamine 2000 (Invitrogen, Carlsbad, CA) following the manufacturer’s protocol, then cultured under standard conditions. The cells were co-transfected with a plasmid encoding green fluorescent protein (GFP) at a molar ratio of 10:1 except for hKV1.1, hKV1.2, and hKCa3.1 for which GFP-tagged ion channel vectors were used. Currents were recorded 24–36 h after transfection. […] HEK 293 cells stably expressing the hKv11.1 channel (hERG, hKCNH2 gene, a kind gift from H. Wulff, University of California, Davis, CA) and mKCa1.1 channel (BKCa, hKCNMA1, a kind gift from C. Beeton, Baylor College of Medicine, Houston, TX) were used. hTRPV1 channels were expressed in a stable manner in CHO cells. Transfected cells were washed twice with 2 mL of ECS (see below) and re-plated onto 35-mm polystyrene cell culture dishes (Cellstar, Greiner Bio-One). hKV1.3 currents were recorded from activated peripheral blood mononuclear cells (PBMCs, see below) 3–4 days after activation. Human veinous blood was obtained from anonymised healthy donors. […]
(§3) Conventional whole-cell patch-clamp electrophysiology was used to record ionic currents. […] Data were analysed using Prism 8 (GraphPad, CA, USA) and ClampFit 10.5 software (Molecular Devices Inc., Sunnyvale, CA). […] For hKCa3.1, hTRPA1 and hTRPV1, the reversal potential for K^+ was determined and only those currents were analysed for which the reversal potential fell into the range of the theoretical reversal potential ± 5 mV (− 86.5 ± 5 mV for KCa3.1, and 0 ± 5 mV for hTRPA1 and hTRPV1).

hKV1.3 [2] = type: cell-based, human
Experimental: as §2, with “donors. PBMCs were isolated using Histopaque1077 (Sigma-Aldrich Hungary, Budapest, Hungary) density gradient centrifugation. Cells obtained were resuspended in RPMI 1640 medium containing 10% foetal calf serum (Sigma-Aldrich Hungary, Budapest, Hungary), 100 μg/mL penicillin, 100 μg/mL streptomycin, and 2 mM L-glutamine, seeded in a 24-well culture plate at a density of 5–6 × 10^5 cells/mL, and grown in a 5% CO2 incubator at 37 °C for 3–5 days.” for “donors.”
as §3

mKCa1.1 channel [3] = type: cell-based
Experimental: as §1, §2, §3

hKV1.1 [4] = conditions: read-out: Kd (positive control concentration equivalent to Kd); KV1.1; no reference given; cited from earlier work
Experimental: (§4) Voltage protocols: For measurement of hKV1.1–1.3 and hKV10.1, currents, voltage steps to + 50 mV, were applied from a holding potential of − 120 mV every 15 or 30 s and the peak current was measured. Channels were activated by a series of depolarisation pulses to + 50 mV from a holding potential of − 120 mV. For KV1.1, 50-ms-long activating stimuli were used every 15 s. Due to the highly variable activation kinetics of KV1.2 [145] 200-ms-long pulses were applied every 15 s to maximise the open probability of the channel.

hKV1.3 [5] = conditions: read-out: Kd (positive control concentration equivalent to Kd); KV1.3; no reference given; cited from earlier work
Experimental: as §4

mKCa1.1 channel [6] = conditions: read-out: Kd (positive control concentration equivalent to Kd); KCa1.1; no reference given; cited from earlier work
Experimental: as §4

hKV1.2 = molecular target: T1, hKV1.2 (Homo sapiens, UniProt P16389); test: Whole-cell patch-clamp, hKV1.2 in transiently transfected CHO cells; type: cell-based; design: reduction in current amplitude, positive control: dose or concentration left out as unconfirmed; conditions: […] nM, KV1.2
T1 construct: GFP; expressed in transfected cells; host or cells: CHO cells (ATCC), transient transfection with Lipofectamine 2000
Experimental: as §1
CHO cells (ATCC) were transiently transfected with plasmids encoding hKV1.1, hKV1.2, hKV10.1, hKCa3.1, hTRPA1, or hNaV1.7 using Lipofectamine 2000 (Invitrogen, Carlsbad, CA) following the manufacturer’s protocol, then cultured under standard conditions. The cells were co-transfected with a plasmid encoding green fluorescent protein (GFP) at a molar ratio of 10:1 except for hKV1.1, hKV1.2, and hKCa3.1 for which GFP-tagged ion channel vectors were used. Currents were recorded 24–36 h after transfection. […] HEK 293 cells stably expressing the hKv11.1 channel (hERG, hKCNH2 gene, a kind gift from H. Wulff, University of California, Davis, CA) and mKCa1.1 channel (BKCa, hKCNMA1, a kind gift from C. Beeton, Baylor College of Medicine, Houston, TX) were used. hTRPV1 channels were expressed in a stable manner in CHO cells. Transfected cells were washed twice with 2 mL of ECS (see below) and re-plated onto 35-mm polystyrene cell culture dishes (Cellstar, Greiner Bio-One). hKV1.3 currents were recorded from activated peripheral blood mononuclear cells (PBMCs, see below) 3–4 days after activation. Human veinous blood was obtained from anonymised healthy donors. PBMCs were isolated using Histopaque1077 (Sigma-Aldrich Hungary, Budapest, Hungary) density gradient centrifugation. Cells obtained were resuspended in RPMI 1640 medium containing 10% foetal calf serum (Sigma-Aldrich Hungary, Budapest, Hungary), 100 μg/mL penicillin, 100 μg/mL streptomycin, and 2 mM L-glutamine, seeded in a 24-well culture plate at a density of 5–6 × 10^5 cells/mL, and grown in a 5% CO2 incubator at 37 °C for 3–5 days. Phytohemagglutinin A (PHA, Sigma-Aldrich Hungary, Budapest, Hungary) was added to the medium at 10 μg/mL to amplify the KV1.3 expression. Cells were washed gently twice with 2 mL of ECS for the patch-clamp experiments.
Conventional whole-cell patch-clamp electrophysiology was used to record ionic currents. Micropipettes were pulled in four stages using a Flaming Brown automatic pipette puller (Sutter Instruments, San Rafael, CA) from Borosilicate Standard Wall with Filament aluminium–silicate glass (Harvard Apparatus Co., Holliston, MA) with tip diameters between 0.5 and 1 μm and heat polished to a tip resistance of 2–8 MΩ. All measurements were carried out by using Axopatch 200B amplifier connected to a personal computer using Axon Digidata 1550A data acquisition hardware (Molecular Devices, Sunnyvale, CA). In general, the holding potential was − 120 mV. Records were discarded when a leak at the holding potential was > 10% of the peak current at the test potential. Series resistance compensation up to 70% was used to minimise voltage errors and achieve proper voltage-clamp conditions. Experiments were performed at room temperature (20–24 °C). Data were analysed using Prism 8 (GraphPad, CA, USA) and ClampFit 10.5 software (Molecular Devices Inc., Sunnyvale, CA). Before analysis, whole-cell current traces were corrected for ohmic leakage and digitally filtered with a three-point boxcar smoothing filter. For hKCa3.1, hTRPA1 and hTRPV1, the reversal potential for K^+ was determined and only those currents were analysed for which the reversal potential fell into the range of the theoretical reversal potential ± 5 mV (− 86.5 ± 5 mV for KCa3.1, and 0 ± 5 mV for hTRPA1 and hTRPV1).

hKV10.1 = test: Whole-cell patch-clamp, hKV10.1 in transiently transfected CHO cells; type: cell-based, human; conditions: 2 µM, KV10.1
Experimental: as §1, §2, §3

T1 sequence (P16389 whole entry): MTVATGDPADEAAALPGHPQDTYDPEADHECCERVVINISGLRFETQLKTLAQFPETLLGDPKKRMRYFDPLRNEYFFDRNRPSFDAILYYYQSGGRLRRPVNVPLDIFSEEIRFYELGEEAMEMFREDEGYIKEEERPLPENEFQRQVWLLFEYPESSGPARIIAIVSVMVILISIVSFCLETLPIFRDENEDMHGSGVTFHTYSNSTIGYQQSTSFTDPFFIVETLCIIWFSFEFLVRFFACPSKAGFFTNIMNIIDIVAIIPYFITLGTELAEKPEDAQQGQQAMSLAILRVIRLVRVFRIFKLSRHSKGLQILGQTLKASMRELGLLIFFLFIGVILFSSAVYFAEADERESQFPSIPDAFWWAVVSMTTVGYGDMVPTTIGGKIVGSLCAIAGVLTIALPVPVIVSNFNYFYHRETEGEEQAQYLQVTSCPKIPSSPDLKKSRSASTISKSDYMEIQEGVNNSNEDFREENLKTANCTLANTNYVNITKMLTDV

CC[N+](CC)(CC)CC [TEA+, tetraethylammonium, reference compound]
reduction in current amplitude, positive control (hKV1.1 [1]): ~50% | reduction in current amplitude, positive control (hKV1.3 [2]): ~50% | reduction in current amplitude, positive control (mKCa1.1 channel [3]): ~50% | Kd (hKV1.1 [4]): 0.3 mM | Kd (hKV1.3 [5]): 10 mM | Kd (mKCa1.1 channel [6]): 10 mM

charybdotoxin [ChTx, reference compound]
reduction in current amplitude, positive control (hKV1.2): ~50%

COc1ccc(CCN2CCC(Nc3nc4ccccc4n3Cc3ccc(F)cc3)CC2)cc1 [Astemizole, astemizole, reference compound]
reduction in current amplitude, positive control (hKV10.1): ~50%
